The values below come from US20050209278A1, “Piperidinyl- and piperazinyl-sulfonylmethyl hydroxamic acids and their use as protease inhibitors” (priority 2002, published 2005).

Molecules are shown by their SMILES.

This test addresses T1, MMP-14 (Homo sapiens, UniProt P50281).
T1 construct: The catalytic domain enzyme was expressed in E. coli inclusion bodies, solubilized in urea; made in house
Briefly: In vitro MMP inhibition, IC50 determination (fluorogenic substrate I). Particulars: value in parenthesis; read-out: MMP-14 (IC-50). It is filed as biochemical. As to the method: Several hydroxamic acids and salts thereof were analyzed in in vitro assays to determine their ability to inhibit the MMP cleavage of peptide substrates. […] and IC50 constants were calculated from the assayed hydroxamic acid-MMP interactions. Human recombinant MMP-1, MMP-2, MMP-9, MMP-13, and MMP-14 were used in this assay. All enzymes were prepared in Assignee's laboratories following usual laboratory procedures. Protocols for the preparation and use of these enzymes are available in the scientific literature. See, e.g., Enzyme Nomenclature (Academic Press, San Diego, Calif., 1992) (and the citations therein). See also, Freije et al., “Molecular cloning and expression of collagenase-3, a novel human matrix metalloproteinase produced by breast carcinomas,” J Biol. Chem., 269(24), 16766-16773 (1994). The MMP-14 full length cDNA was provided by Dr. Gregory Goldberg of Washington University (St. Louis, Mo.). The catalytic domain enzyme was expressed in E. coli inclusion bodies, solubilized in urea, purified on a preparative […] reverse phase HPLC column, and then refolded in the presence of zinc acetate and purified for use. All MMPs were activated using 4-aminophenylmercuric acetate (“APMA”, Sigma Chemical, St. Louis, Mo.) or trypsin. MMP-9 also was activated using human recombinant MMP-3 (purified in Assignee's laboratory following standard cloning and purification techniques). […] Substrate (I) was purchased from Baychem (Redwood City, Calif.), and substrate II was prepared Assignee's laboratory. Substrate I was used in the IC50 determination assays, while substrate II was used in the Ki determination assays. In the absence of MMP inhibitory activity, either substrate is cleaved at the Gly-Leu peptide bond. […] The stock solutions of the assayed hydroxamic acids (or salts thereof) were prepared in 1% dimethyl sulfoxide (DMSO). […] The experiment controls contained the same amount of Buffer A/DMSO as the assayed sample, but contained no hydroxamic acid (or salt thereof). The assays from which the IC50 determinations were made were performed as follows. […] Louis, Mo.). The assayed hydroxamic acid samples were incubated in MicrofluorTM White Plates (Dynatech, Chantilly, Va.) and analyzed on a Perkin Elmer […] plate reader (Norwalk, Conn.). The excitation wavelength was 328 nm, and the emission wavelength-415 nm. […] As stated in the previous paragraph, samples containing varying concentrations of the same assayed hydroxamic acid were prepared. Inhibition was measured as a reduction in fluorescent intensity as a function of MMP inhibitor concentration. […] All values in Table 2 are given in nM units. The IC50 measurements are in parenthesis.
With `O=C(NO)C1(S(=O)(=O)N2CCN(c3ccc(OC(F)(F)F)cc3)CC2)CCN(C2CC2)CC1` [Example 203], the IC50 was 648 nM.

Regarding `CCCc1ccc(N2CCN(S(=O)(=O)C3(C(=O)NO)CCN(CCOC)CC3)CC2)cc1` [Example 200], the IC50 was determined as 1490 nM.

`COCCN1CCC(C(=O)NO)(S(=O)(=O)N2CCN(c3ccc(Br)cc3)CC2)CC1` [Example 201]: the IC50 was 301 nM.

Take `COCCN1CCC(C(=O)NO)(S(=O)(=O)N2CCN(c3ccc(OC(F)(F)F)cc3)CC2)CC1` [Example 202]: the IC50 worked out at 1170 nM.

In the case of `CCCCCCc1ccc(N2CCN(S(=O)(=O)C3(C(=O)NO)CCN(CCOC)CC3)CC2)cc1` [Example 199], the IC50 was 6710 nM.
